Patent publication US20150148551A1, “GENISTEIN FOR REDUCING LEVELS OF STORAGE COMPOUNDS IN THE TREATMENT AND/OR PREVENTION OF LYSOSOMAL STORAGE DISEASES (LSDS)” (3G THERAPEUTICS, INC., priority 2012, published 2015)

Tests used:
Format in all cases: cell-based, human
CHST14 = experiment: DNA microarray, CHST14 expression in fibroblasts exposed to genistein
Method: (§1) The experiments were conducted to characterise the transcriptomic profile of human fibroblast cells exposed to genistein, and in particular to determine the expression of genes encoding lysosomal enzymes involved in metabolism (i.e. synthesis and degradation) of organic substances. The absence or deficiency of these enzymes' activity is responsible for occurrence of various lysosomal storage diseases (LSD) (including MPS). The tested hypothesis assumed that genistein influences the expression of many genes, among which there are genes coding for enzymes required in metabolism of compounds, which are pathologically stored in LSD. The results provide important information regarding genistein action on the molecular level within the range of gene expression modulation by this substance. The experiment was conducted in biological quintuplicates. Human dermal fibroblasts (HDFa) were exposed in vitro for 1, 24 or 48 hours to: 30, 60 or 100 μM of genistein; 0.05% DMSO (K1); or were untreated (control cells) (K2), and total RNA was isolated and analysed.
(§2) Fibroblast cells were grown in Dulbecco (DMEM) medium supplemented with 10% fetal bovine serum (FBS) with the addition of 1% antibiotics and anti-fungal agents at 37° C. in humidified atmosphere of 5% CO2, until the required confluency was obtained.
(§3) To determine the effect of tested compound on the transcriptom of the fibroblast cells, the growth medium was replaced with fresh medium, either non-supplemented (0.05% DMSO), or containing genistein (30, 60 or 100 μM, in 0.05% DMSO). The exposure was done for 1, 24 or 48 hours.
(§4) Total RNA was isolated from fibroblasts using High Pure RNA Isolation Kit according to the protocol and then it was quantitatively evaluated using Quant-It™ RiboGreen® Assay Kit.
(§5) Biotinylated cRNA was prepared using Ambion Total PrepAmp Kit for Illumina arrays.
(§6) Standard hybridization and quantitative image analysis procedures—Illumina hybridization protocol and Illumina scanning protocol, were used.
(§7) Processing of the results was done during data definition, including: background correction (using background subtraction method), normalization (using quantile normalization algorithm with Illumina GenomeStudio software package: gene expression module version 1.9.0) and summarization (using method, which sums the values of signal intensities from a set of probes).

MCOLN1 = experiment: DNA microarray, MCOLN1 expression in fibroblasts exposed to genistein; settings: for MCOLN1 fold change Average: 48 h vs DMSO
Method: as §1, §2, §3, §4, §5, §6, §7

CD164 = experiment: DNA microarray, CD164 expression in fibroblasts exposed to genistein; settings: for CD164 fold change Average: 48 h vs DMSO
Method: as §1, §2, §3, §4, §5, §6, §7

TPP1 = experiment: DNA microarray, TPP1 expression in fibroblasts exposed to genistein; settings: for TPP1 fold change Average: 48 h vs DMSO
Method: as §1, §2, §3, §4, §5, §6, §7

NAGLU = experiment: DNA microarray, NAGLU expression in fibroblasts exposed to genistein; settings: for NAGLU fold change Average: 48 h vs DMSO
Method: as §1, §2, §3, §4, §5, §6, §7

FVT1 = experiment: DNA microarray, FVT1 expression in fibroblasts exposed to genistein; settings: for FVT1 fold change Average: 48 h vs DMSO
Method: as §1, §2, §3, §4, §5, §6, §7

EXT1 = experiment: DNA microarray, EXT1 expression in fibroblasts exposed to genistein
Method: as §1, §2, §3, §4, §5, §6, §7

ARSG = experiment: DNA microarray, ARSG expression in fibroblasts exposed to genistein; settings: 30 μM
Method: as §1, §2, §3, §4, §5, §6, §7

For `O=c1c(-c2ccc(O)cc2)coc2cc(O)cc(O)c12` [genistein, 4′,5,7-trihydroxy-3-phenylchromen-4-one], the “CHST14 fold change Average 1h30/1hK1” value (CHST14; 30 μM, 1 h vs 0.05% DMSO) was 1.007 fold change, the “CHST14 fold change Average 24h30/24hK1” value (CHST14; 30 μM, 24 h vs 0.05% DMSO) was 0.8234 fold change and the “CHST14 fold change Average 48h30/48hK1” value (CHST14; 30 μM, 48 h vs 0.05% DMSO) was 0.9217 fold change. The “CHST14 fold change Average 1h60/1hK1” value (CHST14; 60 μM, 1 h vs 0.05% DMSO) was 0.851 fold change, the “CHST14 fold change Average 24h60/24hK1” value (CHST14; 60 μM, 24 h vs 0.05% DMSO) was 0.8184 fold change and the “CHST14 fold change Average 48h61/48hK1” value (CHST14; 60 μM, 48 h vs 0.05% DMSO) was 0.8526 fold change. The “CHST14 fold change Average 1h100/1hK1” value (CHST14; 100 μM, 1 h vs 0.05% DMSO) was 1.06 fold change, the “CHST14 fold change Average 24h100/24hK1” value (CHST14; 100 μM, 24 h vs 0.05% DMSO) was 0.8438 fold change and the “CHST14 fold change Average 48h100/48hK1” value (CHST14; 100 μM, 48 h vs 0.05% DMSO) was 0.6534 fold change. The “MCOLN1 fold change Average 1h30/1hK1” value (MCOLN1; 30 μM, 1 h vs 0.05% DMSO) was 1.065 fold change, the “MCOLN1 fold change Average 1h60/1hK1” value (MCOLN1; 60 μM, 1 h vs 0.05% DMSO) was 1.038 fold change and the “MCOLN1 fold change Average” value (MCOLN1; 60 μM) was 1.439 fold change. The “MCOLN1 fold change Average 1h100/1hK1” value (MCOLN1; 100 μM, 1 h vs 0.05% DMSO) was 1.013 fold change, the “MCOLN1 fold change Average” value (MCOLN1; 100 μM) was 1.482 fold change and the “CD164 fold change Average 1h30/1hK1” value (CD164; 30 μM, 1 h vs 0.05% DMSO) was 1.0714 fold change. The “CD164 fold change Average” value (CD164; 30 μM) was 0.9618 fold change, the “CD164 fold change Average 1h60/1hK1” value (CD164; 60 μM, 1 h vs 0.05% DMSO) was 1.49 fold change and the “CD164 fold change Average 1h100/1hK1” value (CD164; 100 μM, 1 h vs 0.05% DMSO) was 1.002 fold change. For the same molecule, the “CD164 fold change Average” value (CD164; 100 μM) was 1.282 fold change, the “TPP1 fold change Average 1h30/1hK1” value (TPP1; 30 μM, 1 h vs 0.05% DMSO) was 1.0655 fold change and the “TPP1 fold change Average” value (TPP1; 30 μM) was 1.2672 fold change. The “TPP1 fold change Average 1h60/1hK1” value (TPP1; 60 μM, 1 h vs 0.05% DMSO) was 1.001 fold change, the “TPP1 fold change Average” value (TPP1; 60 μM) was 1.505 fold change and the “TPP1 fold change Average 1h100/1hK1” value (TPP1; 100 μM, 1 h vs 0.05% DMSO) was 1.031 fold change. For the same molecule, the “TPP1 fold change Average” value (TPP1; 100 μM) was 1.603 fold change, the “NAGLU fold change Average 1h30/1hK1” value (NAGLU; 30 μM, 1 h vs 0.05% DMSO) was 1.055 fold change and the “NAGLU fold change Average” value (NAGLU; 30 μM) was 1.1022 fold change. For the same molecule, the “NAGLU fold change Average 1h60/1hK1” value (NAGLU; 60 μM, 1 h vs 0.05% DMSO) was 1.061 fold change, the “NAGLU fold change Average” value (NAGLU; 60 μM) was 1.231 fold change and the “NAGLU fold change Average 1h100/1hK1” value (NAGLU; 100 μM, 1 h vs 0.05% DMSO) was 1.037 fold change. For the same molecule, the “NAGLU fold change Average” value (NAGLU; 100 μM) was 1.303 fold change, the “FVT1 fold change Average 1h30/1hK1” value (FVT1; 30 μM, 1 h vs 0.05% DMSO) was 1.0953 fold change and the “FVT1 fold change Average” value (FVT1; 30 μM) was 1.2441 fold change. The “FVT1 fold change Average 1h60/1hK1” value (FVT1; 60 μM, 1 h vs 0.05% DMSO) was 1.137 fold change, the “FVT1 fold change Average” value (FVT1; 60 μM) was 1.603 fold change and the “FVT1 fold change Average 1h100/1hK1” value (FVT1; 100 μM, 1 h vs 0.05% DMSO) was 1.035 fold change. The “FVT1 fold change Average” value (FVT1; 100 μM) was 1.422 fold change, the “EXT1 fold change Average 1h30/1hK1” value (EXT1; 30 μM, 1 h vs 0.05% DMSO) was 0.9138 fold change and the “EXT1 fold change Average 24h30/24hK1” value (EXT1; 30 μM, 24 h vs 0.05% DMSO) was 0.8048 fold change. The “EXT1 fold change Average 48h30/48hK1” value (EXT1; 30 μM, 48 h vs 0.05% DMSO) was 0.9291 fold change, the “EXT1 fold change Average 1h60/1hK1” value (EXT1; 60 μM, 1 h vs 0.05% DMSO) was 0.9881 fold change and the “EXT1 fold change Average 24h60/24hK1” value (EXT1; 60 μM, 24 h vs 0.05% DMSO) was 0.7005 fold change. For the same molecule, the “EXT1 fold change Average 48h61/48hK1” value (EXT1; 60 μM, 48 h vs 0.05% DMSO) was 0.7648 fold change, the “EXT1 fold change Average 1h100/1hK1” value (EXT1; 100 μM, 1 h vs 0.05% DMSO) was 0.8358 fold change and the “EXT1 fold change Average 24h100/24hK1” value (EXT1; 100 μM, 24 h vs 0.05% DMSO) was 0.6022 fold change. For the same molecule, the “EXT1 fold change Average 48h100/48hK1” value (EXT1; 100 μM, 48 h vs 0.05% DMSO) was 0.689 fold change, the “ARSG fold change Average 1h30/1hK1” value (ARSG; 1 h vs 0.05% DMSO) was 1.083 fold change and the “ARSG fold change Average” value (ARSG; 48 h vs DMSO) was 1.3921 fold change.
